Results as given in patent publication US20230393140A1, “BINDING ASSAYS INVOLVING A PLURALITY OF SYNTHETIC COMPOUNDS, TARGETS, AND COUNTER TARGETS” (SRI International, priority 2020, published 2023).
Read-outs that look alike come from different tables or passages of the source. Marks after values point to notes of the source that are not given here. Numbered stars: 1 amine (or outer) side, 2 acyl side, 3 side chain; on linkers, the order of the positions; unused ones are H or OH. Square brackets hold non-standard residues; d marks the D form. Peptide text beside a SMILES is read from it. * marks the point of attachment. 5FAM = O=C1OC2(c3ccc(O)cc3Oc3cc(O)ccc32)c2ccc(C(=O)*)cc21; NHCH2C6H4(4-CH2CONH2) = NC(=O)Cc1ccc(CN*)cc1; X1 = O=C(Cc1ccc(CN[*:1])cc1)[*:2]

Experiments:
[1] = biological target: T1, K-Ras (Homo sapiens, UniProt P01116, G12V); assay: MST binding affinity of resynthesized NNP hits to K-Ras
T1 construct: purchased Cytoskeleton Inc. CS-RS04
Experimental: Loading was performed according to the following protocol: The 200 μM stock solution of the target protein was diluted to 10 μM in 20 mM HEPES pH 8.0, 150 mM NaCl, 10 mM MgCl2, 1 mM TCEP, 0.05% Tween-20 (total volume 110 μL). 10 μL were set aside for later labeling quality control. EDTA pH 8.0 (stock concentration 10 mM) was added to the protein solution to a final concentration of 80 μM. GTP (stock concentration 50 mM) was added to the protein solution to a final concentration of 750 μM. The solution was incubated at 30° C. for 2 hours (PCR tube) and then placed on ice for 2 minutes. MgCl2 was added to the protein solution to a final concentration of 100 mM. The resulting protein solution was buffer exchanged into the buffer required in the labeling kit for labeling. […] All the other target molecules (TNFα, IL-6, IL-6R and ASGPR) were used as received without any additional treatment.
Hit binding affinity to various targets were determined using Microscale Thermophoresis (MST). MST experiments were performed on a Monolith NT.115pico (NanoTemper Technologies GmbH, Munich, Germany). Measurements were performed at room temperature, in triplicate with incubation periods of 15, 30 and 45 minutes. […] Targets were labeled using Nanotemper Monolith 2nd Generation Protein Labeling Kits. RED-MALEIMIDE (Maleimide-647-dye) labeling kit was used for K-Ras and RED-NHS (NHS-647-dye) labeling kit was used for IL-6, IL-6R, TNFα and ASGPR. The buffer for the ASGPR contained 20 mM HEPES pH 7.4, 150 mM NaCl, 10 mM MgCl2, 2 mM CaCl2, 0.05% Pluronic F-127, and 1 mM DTT; for IL-6 contained 20 mM HEPES pH 7.4, 150 mM KCl, 10 mM MgCl2, and 0.1% Pluronic F-127; for the soluble IL-6 receptor 20 mM HEPES pH 7.4, 150 mM NaCl, 10 mM MgCl2, and 0.05% Tween-20; for K-Ras 20 mM HEPES pH 7.4, 150 mM NaCl, 10 mM MgCl2, 0.05% Tween-20 and 1 mM DTT; for TNFα 10 mM HEPES pH 7.4, 150 mM NaCl, 10 mM MgCl2, 0.05% Polysorbate-20. Triplicate data was analyzed using MO.AffinityAnalysis software (NanoTemper Technologies GmbH).

[2] = biological target: T2, cRaf/K-Ras (G12V) PPI (Homo sapiens, UniProt P01116, G12V); assay: K-Ras-cRaf HTRF-based PPI profiling; format: biochemical; conditions: for HillSlope: curve fit of % binding, K-Ras G12V 30 nM, GST-cRaf 10 nM; for blank corrected HTRF: raw data, compounds without fluorescein;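 on blank corrected HTRF: background is the signal of wells with all components except cRaf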
T2 construct: b-Kras G12V (GppNHp) (aa 2-169); biotin (b-
Experimental: In some experimental embodiments, a buffer was added to the assay wells which included […] HEPES pH 7.4, 150 mM NaCl, 5 mM MgCl2, 1 mM DTT, 0.005% NP40, and 1% DMSO. 5 uL of 3×K-Ras protein was then added to the assay wells, followed by the synthetic compounds which were added using acoustic technology (ECHO, Labcyte) followed by thirty minutes incubation at room temperature. Afterwards, 5 uL of 3×cRaf protein was added to the assay wells and 5 uL of detection mix was then added to the assay wells after 30 minutes. The detection mix included Mab anti-GST-Tb cryptate (Cisbio 61GSTTLB) and streptavidin-XL665 (Ex/Em=(337/665; 620) in PHERAstar (BMG Labtech)). HTRF signal was measured […] later.
The data includes raw data (signal-background without cRaf protein but with all other component), % binding (relative to DMSO controls), and curve fits. Curve fits were performed when the activities at the highest concentration of the synthetic compounds were less than 65%. Tables 18A-18B below includes the raw data (e.g., blank corrected HTRF) and Tables 19A-19B includes the % binding.

[3] = system: biotinylated GST; assay: Interference check with biotinylated GST and detection mix
Excerpt: Table 20 below provides an interference check on the synthetic compounds using biotinylated GST, which was used with the detection mix to check for compound effect on fluorescence.

[4] = K-Ras, compound with fluorescein on N-term, read-out: KD[nM] in MST (with fluorescein on N-term)
[5] = read-out: KD (nM) [95% conf. int], MST, NNP1 library hit, target K-Ras, one-site binding model

| Compound | Kd [1, 4] | Kd [1, 5] | HillSlope [2] | blank corrected HTRF ([2]; conc. 1.00E−05) | blank corrected HTRF ([2]; conc. 1.11E−06) | blank corrected HTRF ([2]; conc. 1.23E−07) | blank corrected HTRF ([2]; conc. 3.33E−06) | blank corrected HTRF ([2]; conc. 3.70E−07) | blank corrected HTRF ([2]; conc. 4.12E−08) | further results |
| --- | --- | --- | --- | --- | --- | --- | --- | --- | --- | --- |
| CC(C)[C@H](NC(=O)[C@@H](Cc1ccc(O)cc1)NC(=O)[C@@H](Cc1c[nH]cn1)NC(=O)[C@H]1CCCN1C(=O)[C@@H](Cc1c[nH]c2ccccc12)NC(=O)c1ccc2c(c1)C(=O)OC21c2ccc(O)cc2Oc2cc(O)ccc21)C(=O)NCc1ccc(CC(=O)NCC(=O)N[C@@H](C(=O)N2CCC[C@@H]2C(=O)N[C@H](CCCNC(=N)N)C(=O)N[C@@H](C)C(=O)NCc2ccc(CC(=O)N3CCC[C@@H]3C(=O)N[C@H](CO)C(=O)N[C@H](CCC(=O)O)C(=O)N[C@H](CCCNC(=N)N)C(=O)NCC(=O)NCc3ccc(CC(=O)N4CCC[C@@H]4C(=O)N[C@H](CCCCN)C(=O)N[C@H](Cc4ccc(O)cc4)C(=O)N[C@H](CCCNC(=N)N)C(=O)N[C@@H](Cc4ccccc4)C(=O)NCc4ccc(CC(=O)N[C@H](CO)C(=O)N[C@H](CO)C(=O)NCC(=O)N[C@H](CC(N)=O)C(=O)N[C@@H](Cc5ccccc5)C(=O)NCc5ccc(CC(=O)NCC(=O)N[C@H](Cc6c[nH]c7ccccc67)C(=O)N[C@H](Cc6c[nH]cn6)C(=O)N[C@H](CCCNC(=N)N)C(=O)N[C@@H](C)C(=O)NCc6ccc(CC(N)=O)cc6)cc5)cc4)cc3)cc2)C(C)C)cc1 [KRAS-1-1] (5FAM-[dW][dP][dH][dY]V[X1]G[dV][dP][dR]A[X1][dP][dS][dE][dR]G[X1][dP][dK][dY][dR]F[X1][dS][dS]G[dN]F[X1]G[dW][dH][dR]A-{NHCH2C6H4(4-CH2CONH2)}) | 24 nM | 24 nM | −0.7155 | 4849 | 6589 | 12756 | 5282 | 11981 | 14675 | blank corrected HTRF ([2]; conc. 1.37E−08): 14500; blank corrected HTRF ([2]; conc. 5.08E−10): 13672 |
| CC(C)C[C@H](NC(=O)[C@@H](CCC(=O)O)NC(=O)[C@@H](CCCNC(=N)N)NC(=O)[C@@H](CO)NC(=O)[C@H](NC(=O)Cc1ccc(CNC(=O)[C@H](C)NC(=O)[C@@H](CO)NC(=O)CNC(=O)[C@@H](CO)NC(=O)[C@H]2CCCN2C(=O)Cc2ccc(CNC(=O)[C@H](Cc3ccccc3)NC(=O)[C@@H](CCC(=O)O)NC(=O)[C@@H](Cc3c[nH]cn3)NC(=O)[C@H]3CCCN3C(=O)[C@@H](CO)NC(=O)c3ccc4c(c3)C(=O)OC43c4ccc(O)cc4Oc4cc(O)ccc43)cc2)cc1)[C@H](C)O)C(=O)NCc1ccc(CC(=O)N2CCC[C@@H]2C(=O)N[C@H](CCCCN)C(=O)N[C@H](Cc2ccc(O)cc2)C(=O)N[C@H](CCCNC(=N)N)C(=O)N[C@@H](Cc2ccccc2)C(=O)NCc2ccc(CC(=O)N[C@H](CCCNC(=N)N)C(=O)N[C@H](Cc3ccc(O)cc3)C(=O)N[C@@H](C(=O)N[C@H](CCC(=O)O)C(=O)N[C@@H](C)C(=O)NCc3ccc(CC(=O)NCC(=O)N[C@H](Cc4c[nH]c5ccccc45)C(=O)N[C@H](Cc4c[nH]cn4)C(=O)N[C@H](CCCNC(=N)N)C(=O)N[C@@H](C)C(=O)NCc4ccc(CC(N)=O)cc4)cc3)[C@H](C)O)cc2)cc1 [KRAS-1-6] (5FAM-[dS][dP][dH][dE]F[X1][dP][dS]G[dS]A[X1][dT][dS][dR][dE]L[X1][dP][dK][dY][dR]F[X1][dR][dY][dT][dE]A[X1]G[dW][dH][dR]A-{NHCH2C6H4(4-CH2CONH2)}) | 21 nM | 21 nM | −0.8822 | 3880 | 9200 | 13441 | 5253 | 11760 | 13672 | blank corrected HTRF ([2]; conc. 1.52E−09): 13652; % signal compared to DMSO ([3]; assay conc. 0.000508053 μM): 103.1%; % signal compared to DMSO ([3]; assay conc. 0.001524158 μM): 102.7%; % signal compared to DMSO ([3]; assay conc. 0.004572474 μM): 102.4%; % signal compared to DMSO ([3]; assay conc. 0.013717421 μM): 102.5%; % signal compared to DMSO ([3]; assay conc. 0.041152263 μM): 102.9%; % signal compared to DMSO ([3]; assay conc. 0.12345679 μM): 100.3%; % signal compared to DMSO ([3]; assay conc. 0.37037037 μM): 100.7%; % signal compared to DMSO ([3]; assay conc. 1.111111111 μM): 89.85%; % signal compared to DMSO ([3]; assay conc. 3.333333333 μM): 74.45%; % signal compared to DMSO ([3]; assay conc. 19 μM): 62.03* % |
| CC(C)C[C@H](NC(=O)[C@@H](CCCNC(=N)N)NC(=O)[C@@H](CCCCN)NC(=O)[C@@H](CCC(=O)O)NC(=O)[C@@H](Cc1ccccc1)NC(=O)Cc1ccc(CNC(=O)[C@@H](NC(=O)[C@@H](Cc2ccc(O)cc2)NC(=O)[C@@H](Cc2c[nH]cn2)NC(=O)[C@H]2CCCN2C(=O)[C@@H](Cc2c[nH]c3ccccc23)NC(=O)c2ccc3c(c2)C(=O)OC32c3ccc(O)cc3Oc3cc(O)ccc32)C(C)C)cc1)C(=O)NCc1ccc(CC(=O)N2CCC[C@@H]2C(=O)N[C@H](CO)C(=O)N[C@H](CCC(=O)O)C(=O)N[C@H](CCCNC(=N)N)C(=O)NCC(=O)NCc2ccc(CC(=O)N3CCC[C@@H]3C(=O)N[C@H](CCCCN)C(=O)N[C@H](Cc3ccc(O)cc3)C(=O)N[C@H](CCCNC(=N)N)C(=O)N[C@@H](Cc3ccccc3)C(=O)NCc3ccc(CC(=O)N4CCC[C@@H]4C(=O)NCC(=O)N[C@H](CCCNC(=N)N)C(=O)N[C@H](Cc4c[nH]c5ccccc45)C(=O)NCC(=O)NCc4ccc(CC(=O)N[C@H](Cc5c[nH]cn5)C(=O)N[C@H](Cc5ccc(O)cc5)C(=O)N[C@H](CO)C(=O)N[C@H](CCC(=O)O)C(=O)N[C@@H](Cc5ccccc5)C(=O)NCc5ccc(CC(N)=O)cc5)cc4)cc3)cc2)cc1 [KRAS-1-15] (5FAM-[dW][dP][dH][dY]V[X1][dF][dE][dK][dR]L[X1][dP][dS][dE][dR]G[X1][dP][dK][dY][dR]F[X1][dP]G[dR][dW]G[X1][dH][dY][dS][dE]F-{NHCH2C6H4(4-CH2CONH2)}) | – | 180 nM | – | – | – | – | – | – | – | – |
